Assays:
[1] = organism not given; cited from earlier work
Candida albicans = assay: Turbidity assay (broth macrodilution, NCCLS M27-A); assay type: cell-based; details: 40 micrograms Diflucan in solution; activity decreases as inoculum increases
Method: Candida albicans was purchased from ATCC.
A broth macrodilution assay was performed based on the NCCLS M27-A protocol. The stock fungal inoculum concentration was determined via backplating a set volume of the diluted fungus broth onto Trypticase Soy Agar plates. The number of colony forming units (cfu) grown per plate was then counted and extrapolated to determine the starting Candida concentration.
The stock fungus solution was then diluted to 10^6, 10^5 and 10^4 cfu/ml. After incubating the individual test segments in 2 ml of the fungus solutions for 24 hours at 30° C., the optical density of the broth solutions was measured at 492 nm.

Row | SMILES | MIC50 [1] | antifungal activity (Candida albicans)
1 | O=C(O)c1cn(C2CC2)c2cc(N3CCNCC3)c(F)cc2c1=O [Cipro, Ciprofloxacin] | 0.26 micrograms per ml | 
2 | OC(Cn1cncn1)(Cn1cncn1)c1ccc(F)cc1F [Diflucan, Fluconazole] |  | excellent antifungal activity

— patent US10441550B2, “Nanofibrous materials as drug, protein, or genetic release vehicles” (BioSurfaces, Inc., priority 2005, dated 2019)
